Data as given in BindingDB's records for doi:10.1016/j.bmcl.2007.02.075 (Bayer Research Center, 2007).
pIC50: −log10 of the molar value.

Target: RAC-alpha serine/threonine-protein kinase (Homo sapiens, UniProt P31749)
Experiment: Inhibition of pAkt

Chain of RAC-alpha serine/threonine-protein kinase (P31749 whole entry): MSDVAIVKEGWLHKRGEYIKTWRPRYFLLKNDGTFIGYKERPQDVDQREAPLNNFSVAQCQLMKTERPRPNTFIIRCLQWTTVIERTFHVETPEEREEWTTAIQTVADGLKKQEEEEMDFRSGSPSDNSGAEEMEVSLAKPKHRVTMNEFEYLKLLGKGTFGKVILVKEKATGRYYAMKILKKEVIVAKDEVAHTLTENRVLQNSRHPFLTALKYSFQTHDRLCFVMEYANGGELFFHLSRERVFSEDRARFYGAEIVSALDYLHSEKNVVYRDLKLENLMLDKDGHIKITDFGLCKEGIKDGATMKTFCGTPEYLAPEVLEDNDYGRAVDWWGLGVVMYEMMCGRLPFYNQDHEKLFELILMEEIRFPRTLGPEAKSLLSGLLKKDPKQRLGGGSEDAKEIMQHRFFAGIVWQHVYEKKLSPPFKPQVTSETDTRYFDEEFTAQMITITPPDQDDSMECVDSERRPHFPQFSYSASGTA

Row | pIC50 | SMILES
1 | 7.62 | CNC(=O)Nc1ccc(CNc2ncsc2C(=O)Nc2ccc3c(c2)OC(F)(F)O3)cn1 [1-(5-((5-((2,2-difluorobenzo[d][1,3]dioxol-5-yl)carbamoyl)thiazol-4-ylamino)methyl)pyridin-2-yl)-3-methylurea]
2 | 7.09 | CCNC(=O)Nc1ccc(CNc2ncsc2C(=O)Nc2ccc3c(c2)OC(F)(F)O3)cn1 [1-(5-((5-((2,2-difluorobenzo[d][1,3]dioxol-5-yl)carbamoyl)thiazol-4-ylamino)methyl)pyridin-2-yl)-3-ethylurea]
3 | 7.82 | CNC(=O)Nc1ccc(CNc2c(C(=O)Nc3ccc(SC(F)(F)F)cc3)cnn2C)cn1 [1-methyl-3-(5-((1-methyl-4-((4-(trifluoromethylthio)phenyl)carbamoyl)-1H-pyrazol-5-ylamino)methyl)pyridin-2-yl)urea]
